# Assay results published in patent US8192962B2, “Processes for detecting toxic substances” (Daikin Industries, Ltd., priority 2001, dated 2012).
# “And” between values parts separate entries of the source, which are not always exact repeats. Identical values can stand only once.
# System: DNA repair protein genes
# Assay: DNA chip mRNA expression in yeast, DNA repair protein genes (Table 3)
# Assay type: cell-based, Saccharomyces cerevisiae S288C
# Settings: incubated two hours, concentrations as in the 1st table
# How it was run: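 Ratios compare mRNA levels in stressed and control S. cerevisiae. Each toxicant was applied for two hours to log-phase cultures at 25° C. at a sub-lethal, growth-inhibiting level; fluorescent cDNA (Cy3- or Cy5-dUTP) was hybridized to a genome-wide yeast chip for over 12 h at 65° C.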
smiles,measurement,setting,value
"Oc1cc(Cl)c(Cl)cc1Cl [(6), 2,4,5-trichlorophenol]",The level of expressed mRNA in the presence of chemical substance/The level of expressed mRNA in the absence of chemical substance,yeast gene YAL015C,0.7
same,The level of expressed mRNA in the presence of chemical substance/The level of expressed mRNA in the absence of chemical substance,yeast gene YBL019W,1.0
same,The level of expressed mRNA in the presence of chemical substance/The level of expressed mRNA in the absence of chemical substance,yeast gene YBR073W,0.7
same,The level of expressed mRNA in the presence of chemical substance/The level of expressed mRNA in the absence of chemical substance,yeast gene YCR014C,1.1
same,The level of expressed mRNA in the presence of chemical substance/The level of expressed mRNA in the absence of chemical substance,yeast gene YDL017W,1.1
same,The level of expressed mRNA in the presence of chemical substance/The level of expressed mRNA in the absence of chemical substance,yeast gene YDL059C,1.2
same,The level of expressed mRNA in the presence of chemical substance/The level of expressed mRNA in the absence of chemical substance,yeast gene YDL200C,0.6
same,The level of expressed mRNA in the presence of chemical substance/The level of expressed mRNA in the absence of chemical substance,yeast gene YDR054C,1.9
same,The level of expressed mRNA in the presence of chemical substance/The level of expressed mRNA in the absence of chemical substance,yeast gene YDR369C,0.6
same,The level of expressed mRNA in the presence of chemical substance/The level of expressed mRNA in the absence of chemical substance,yeast gene YEL019C,1.5
same,The level of expressed mRNA in the presence of chemical substance/The level of expressed mRNA in the absence of chemical substance,yeast gene YEL037C,0.6
same,The level of expressed mRNA in the presence of chemical substance/The level of expressed mRNA in the absence of chemical substance,yeast gene YER162C,0.7
same,The level of expressed mRNA in the presence of chemical substance/The level of expressed mRNA in the absence of chemical substance,yeast gene YFL014W,9.3
same,The level of expressed mRNA in the presence of chemical substance/The level of expressed mRNA in the absence of chemical substance,yeast gene YGL058W,1.0 and 1.5
same,The level of expressed mRNA in the presence of chemical substance/The level of expressed mRNA in the absence of chemical substance,yeast gene YGL091C,1.6
same,The level of expressed mRNA in the presence of chemical substance/The level of expressed mRNA in the absence of chemical substance,yeast gene YGL127C,0.6
same,The level of expressed mRNA in the presence of chemical substance/The level of expressed mRNA in the absence of chemical substance,yeast gene YGL163C,0.9
same,The level of expressed mRNA in the presence of chemical substance/The level of expressed mRNA in the absence of chemical substance,yeast gene YGL249W,2.5
same,The level of expressed mRNA in the presence of chemical substance/The level of expressed mRNA in the absence of chemical substance,yeast gene YGR180C,0.6 and 1.0
same,The level of expressed mRNA in the presence of chemical substance/The level of expressed mRNA in the absence of chemical substance,yeast gene YGR231C,1.9
same,The level of expressed mRNA in the presence of chemical substance/The level of expressed mRNA in the absence of chemical substance,yeast gene YGR258C,2.2
same,The level of expressed mRNA in the presence of chemical substance/The level of expressed mRNA in the absence of chemical substance,yeast gene YHR164C,1.4
same,The level of expressed mRNA in the presence of chemical substance/The level of expressed mRNA in the absence of chemical substance,yeast gene YIL036W,1.8
same,The level of expressed mRNA in the presence of chemical substance/The level of expressed mRNA in the absence of chemical substance,yeast gene YIL072W,1.2
same,The level of expressed mRNA in the presence of chemical substance/The level of expressed mRNA in the absence of chemical substance,yeast gene YIL143C,1.4
same,The level of expressed mRNA in the presence of chemical substance/The level of expressed mRNA in the absence of chemical substance,yeast gene YIL153W,0.9
same,The level of expressed mRNA in the presence of chemical substance/The level of expressed mRNA in the absence of chemical substance,yeast gene YIR002C,2.2
same,The level of expressed mRNA in the presence of chemical substance/The level of expressed mRNA in the absence of chemical substance,yeast gene YJL026W,1.0
same,The level of expressed mRNA in the presence of chemical substance/The level of expressed mRNA in the absence of chemical substance,yeast gene YJR046W,2.0
same,The level of expressed mRNA in the presence of chemical substance/The level of expressed mRNA in the absence of chemical substance,yeast gene YJR052W,1.4
same,The level of expressed mRNA in the presence of chemical substance/The level of expressed mRNA in the absence of chemical substance,yeast gene YKL145W,2.1
same,The level of expressed mRNA in the presence of chemical substance/The level of expressed mRNA in the absence of chemical substance,yeast gene YLR103C,1.1
same,The level of expressed mRNA in the presence of chemical substance/The level of expressed mRNA in the absence of chemical substance,yeast gene YLR233C,0.8
same,The level of expressed mRNA in the presence of chemical substance/The level of expressed mRNA in the absence of chemical substance,yeast gene YLR288C,1.2
same,The level of expressed mRNA in the presence of chemical substance/The level of expressed mRNA in the absence of chemical substance,yeast gene YML032C,0.9
same,The level of expressed mRNA in the presence of chemical substance/The level of expressed mRNA in the absence of chemical substance,yeast gene YMR035W,1.5
same,The level of expressed mRNA in the presence of chemical substance/The level of expressed mRNA in the absence of chemical substance,yeast gene YMR072W,1.6 and 2.4
same,The level of expressed mRNA in the presence of chemical substance/The level of expressed mRNA in the absence of chemical substance,yeast gene YMR096W,2.2
same,The level of expressed mRNA in the presence of chemical substance/The level of expressed mRNA in the absence of chemical substance,yeast gene YMR284W,0.8 and 1.2
same,The level of expressed mRNA in the presence of chemical substance/The level of expressed mRNA in the absence of chemical substance,yeast gene YNL213C,1.7
same,The level of expressed mRNA in the presence of chemical substance/The level of expressed mRNA in the absence of chemical substance,yeast gene YNL250W,0.8
same,The level of expressed mRNA in the presence of chemical substance/The level of expressed mRNA in the absence of chemical substance,yeast gene YNL261W,1.3
same,The level of expressed mRNA in the presence of chemical substance/The level of expressed mRNA in the absence of chemical substance,yeast gene YNL312W,1.7
same,The level of expressed mRNA in the presence of chemical substance/The level of expressed mRNA in the absence of chemical substance,yeast gene YOL043C,0.8
same,The level of expressed mRNA in the presence of chemical substance/The level of expressed mRNA in the absence of chemical substance,yeast gene YOR005C,1.3
same,The level of expressed mRNA in the presence of chemical substance/The level of expressed mRNA in the absence of chemical substance,yeast gene YOR386W,3.3
same,The level of expressed mRNA in the presence of chemical substance/The level of expressed mRNA in the absence of chemical substance,yeast gene YPL022W,5.2
same,The level of expressed mRNA in the presence of chemical substance/The level of expressed mRNA in the absence of chemical substance,yeast gene YPL164C,1.7
same,The level of expressed mRNA in the presence of chemical substance/The level of expressed mRNA in the absence of chemical substance,yeast gene YPL194W,1.1
same,The level of expressed mRNA in the presence of chemical substance/The level of expressed mRNA in the absence of chemical substance,yeast gene YPR025C,0.9
"CCCCC[C@H](O)CC(=O)CCc1ccc(O)c(OC)c1 [(13), gingerol]",The level of expressed mRNA in the presence of chemical substance/The level of expressed mRNA in the absence of chemical substance,yeast gene YDL200C,1.1
same,The level of expressed mRNA in the presence of chemical substance/The level of expressed mRNA in the absence of chemical substance,yeast gene YEL019C,1.0
same,The level of expressed mRNA in the presence of chemical substance/The level of expressed mRNA in the absence of chemical substance,yeast gene YGL058W,1.0
same,The level of expressed mRNA in the presence of chemical substance/The level of expressed mRNA in the absence of chemical substance,yeast gene YIL072W,1.4
same,The level of expressed mRNA in the presence of chemical substance/The level of expressed mRNA in the absence of chemical substance,yeast gene YLR233C,1.0
same,The level of expressed mRNA in the presence of chemical substance/The level of expressed mRNA in the absence of chemical substance,yeast gene YLR288C,0.7
same,The level of expressed mRNA in the presence of chemical substance/The level of expressed mRNA in the absence of chemical substance,yeast gene YMR284W,1.0
same,The level of expressed mRNA in the presence of chemical substance/The level of expressed mRNA in the absence of chemical substance,yeast gene YNL312W,0.7
same,The level of expressed mRNA in the presence of chemical substance/The level of expressed mRNA in the absence of chemical substance,yeast gene YPL164C,1.0
same,The level of expressed mRNA in the presence of chemical substance/The level of expressed mRNA in the absence of chemical substance,yeast gene YPR025C,1.1
